Results from ChEMBL document CHEMBL5113531, “Discovery of Potent Cholinesterase Inhibition-Based Multi-Target-Directed Lead Compounds for Synaptoprotection in Alzheimer's Disease” (J Med Chem, 2022).
Calls of active or inactive are those of the source. The rule behind the calls is not given here.

What was measured:
[1] = molecular target: Sigma non-opioid intracellular receptor 1 (Cavia porcellus, UniProt Q60492); format: cell membranes, Brain, Membrane;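 also: radioligand displacement of [3H]-(+)-pentazocine binding to sigma1 receptor in guinea pig brain membranes, read by scintillation counting after a 120 min incubation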
Description: Displacement of [3H]-(+)-pentazocine from sigma1 receptor in guinea pig brain membrane measured after 120 mins by scintillation counting method

Acetylcholinesterase = Acetylcholinesterase (Homo sapiens, UniProt P22303); assay: Inhibition of human recombinant AChe using acetylthiocholine iodide as substrate incubated for 10 mins by DTNB reagent based Ellman's method
Cholinesterase = Cholinesterase (Homo sapiens, UniProt P06276); assay: Inhibition of human recombinant BuChe using butyrylthiocholine iodide as substrate incubated for 10 mins by DTNB reagent based Ellman's method
[2] = molecular target: Glutamate receptor ionotropic, NMDA 2B (Homo sapiens, UniProt Q13224); assay: Displacement of [3H]ifenprodil from recombinant human GluN2B NMDA receptor (unknown origin) expressed in dexamethasone-induced mouse L-M(TK-) cell after 120 mins by microbeta scintillation counting method; format: cell-based
[3] = Selectivity index, ratio of Ki for displacement of [3H]DTG from sigma 2 receptor in rat liver membranes to Ki for displacement of [3H]-(+)-pentazocine from sigma1 receptor in guinea pig brain membrane; format: cell membranes
[4] = molecular target: T1, Sigma intracellular receptor 2 (Rattus norvegicus, UniProt Q5U3Y7); assay: Displacement of [3H]DTG from sigma 2 receptor in rat liver membranes measured after 120 mins by scintillation counting method; format: cell membranes, Membrane
T1 sequence (Q5U3Y7 whole entry): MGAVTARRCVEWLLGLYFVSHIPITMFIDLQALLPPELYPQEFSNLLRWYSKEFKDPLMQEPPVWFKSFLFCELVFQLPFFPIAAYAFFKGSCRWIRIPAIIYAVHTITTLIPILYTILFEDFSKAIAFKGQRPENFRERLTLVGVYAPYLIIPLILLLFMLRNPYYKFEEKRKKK

Danio rerio [5] = species: Danio rerio; assay: Neuroprotective activity against Abeta42 induced zebrafish AD model assessed as reversal of reduction in synaptic integrity at 10 uM measured after 5 days; format: functional, organism-based; details: time 5.0 day
Danio rerio [6] = species: Danio rerio; assay: Neuroprotective activity against zebrafish AD model assessed as reversal of reduction in synaptic integrity at 10 uM measured after 5 days relative to control; format: functional; parameters: scale not given: the % may be the effect or the level left; details: time 5 day
[7] = Selectivity index, ratio of Ki for displacement of [3H]-(+)-pentazocine from sigma1 receptor in guinea pig brain membrane to Ki for displacement of [3H]DTG from sigma 2 receptor in rat liver membranes; format: cell membranes
SH-SY5Y [8] = assay: Neuroprotective activity in Abeta42 induced stress human SH-SY5Y cell model measured after 72 hrs by CTG luminescence assay; format: functional, cell-based
Danio rerio [9] = species: Danio rerio; assay: Neuroprotective activity against zebrafish AD model assessed as reversal of reduction in synaptic integrity at 10 uM measured after 5 days in presence of Abeta42 relative to control; format: functional; parameters: scale not given: the % may be the effect or the level left; details: time 5 day
SH-SY5Y [10] = assay: Neuroprotective activity in H2O2 induced stress human SH-SY5Y cell model measured after 48 hrs by MTT assay; format: functional, cell-based
PC-12 [11] = assay: Neuroprotective activity in […] PC-12 cells assessed as induction of NGF-mediated neurite sprouting measured after 4 days by measuring fold change; format: functional, Rattus norvegicus; details: time 4 day
Cytochrome P450 2D6 = Cytochrome P450 2D6 (Homo sapiens, UniProt P10635); assay: Inhibition of CYP2D6 (unknown origin) preincubated for 10 mins followed by NADP addition measured after 50 mins; format: ADME
P2X purinoceptor 7 = molecular target: T2, P2X purinoceptor 7 (Homo sapiens, UniProt Q99572); assay: Antagonist activity at human P2X7 receptor expressed in HEK293 cells assessed as reduction in YO-PRO-1 iodide dye uptake preincubated for 30 mins followed by YO-PRO-1 iodide addition and measured after 120 mins by fluorescence plate reader analysis; format: cell-based
T2 sequence (Q99572 whole entry): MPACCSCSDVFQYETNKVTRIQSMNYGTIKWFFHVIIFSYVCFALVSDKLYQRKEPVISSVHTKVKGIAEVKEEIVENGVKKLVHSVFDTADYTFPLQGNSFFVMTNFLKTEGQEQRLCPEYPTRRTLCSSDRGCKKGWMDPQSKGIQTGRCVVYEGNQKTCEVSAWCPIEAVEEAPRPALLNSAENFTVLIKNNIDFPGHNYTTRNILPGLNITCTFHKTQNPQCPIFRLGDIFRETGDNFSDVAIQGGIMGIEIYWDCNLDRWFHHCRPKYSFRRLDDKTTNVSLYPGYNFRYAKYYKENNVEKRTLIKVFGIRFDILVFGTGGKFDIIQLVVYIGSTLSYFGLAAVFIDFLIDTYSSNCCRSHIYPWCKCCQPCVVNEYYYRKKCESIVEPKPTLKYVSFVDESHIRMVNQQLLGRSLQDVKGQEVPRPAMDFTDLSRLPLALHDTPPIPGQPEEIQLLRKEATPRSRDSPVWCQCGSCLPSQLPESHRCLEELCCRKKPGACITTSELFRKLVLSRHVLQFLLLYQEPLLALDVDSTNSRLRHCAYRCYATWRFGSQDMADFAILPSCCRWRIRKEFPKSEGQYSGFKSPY

Cytochrome P450 2C9 = Cytochrome P450 2C9 (Homo sapiens, UniProt P11712); assay: Inhibition of CYP2C9 (unknown origin) preincubated for 10 mins followed by NADP addition measured after 50 mins; format: ADME
Danio rerio [12] = species: Danio rerio; assay: Anti-neuroinflammatory activity in Abeta42 induced zebrafish AD model assessed as reduction in number of activated microglia relative to control; format: functional; parameters: scale not given: the % may be the effect or the level left
Cytochrome P450 3A4 = Cytochrome P450 3A4 (Homo sapiens, UniProt P08684); assay: Inhibition of CYP3A4 (unknown origin) preincubated for 10 mins followed by NADP addition measured after 50 mins; format: ADME
SH-SY5Y [13] = assay: Glio-protective activity in H2O2 induced human SH-SY5Y cells measured after 48 hrs by MTT assay; format: functional, cell-based
SH-SY5Y [14] = assay: Glio-protective activity in Abeta42 induced stress human SH-SY5Y cells measured after 72 hrs by CTG luminescence assay; format: functional, cell-based
[15] = Hepatotoxicity in […] cells assessed as reduction in cell viability at 10 to 80 uM measured after 24 hrs by CTG- luminescence assay; format: toxicity, cell-based; details: human
PC-12 [16] = assay: Neuroprotective activity in […] PC-12 cells assessed as induction of NGF-mediated neurite outgrowth measured after 4 days by measuring fold change; format: functional, Rattus norvegicus; details: time 4 day
[17] = Permeability of the compound at pH 6.8 by HDM-PAMPA assay; format: ADME; details: read-out: permeability
[18] = Cytotoxicity against HEK293 cells assessed as reduction in cell viability at 10 to 80 uM measured after 24 hrs by CTG- luminescence assay; format: toxicity, cell-based; details: human
[19] = Permeability of the compound across blood brain barrier at pH 7.4 incubated for 16 hrs by PAMPA assay; format: ADME; details: read-out: permeability

Glutamate receptor ionotropic, NMDA 2B, sequence (Q13224 whole entry): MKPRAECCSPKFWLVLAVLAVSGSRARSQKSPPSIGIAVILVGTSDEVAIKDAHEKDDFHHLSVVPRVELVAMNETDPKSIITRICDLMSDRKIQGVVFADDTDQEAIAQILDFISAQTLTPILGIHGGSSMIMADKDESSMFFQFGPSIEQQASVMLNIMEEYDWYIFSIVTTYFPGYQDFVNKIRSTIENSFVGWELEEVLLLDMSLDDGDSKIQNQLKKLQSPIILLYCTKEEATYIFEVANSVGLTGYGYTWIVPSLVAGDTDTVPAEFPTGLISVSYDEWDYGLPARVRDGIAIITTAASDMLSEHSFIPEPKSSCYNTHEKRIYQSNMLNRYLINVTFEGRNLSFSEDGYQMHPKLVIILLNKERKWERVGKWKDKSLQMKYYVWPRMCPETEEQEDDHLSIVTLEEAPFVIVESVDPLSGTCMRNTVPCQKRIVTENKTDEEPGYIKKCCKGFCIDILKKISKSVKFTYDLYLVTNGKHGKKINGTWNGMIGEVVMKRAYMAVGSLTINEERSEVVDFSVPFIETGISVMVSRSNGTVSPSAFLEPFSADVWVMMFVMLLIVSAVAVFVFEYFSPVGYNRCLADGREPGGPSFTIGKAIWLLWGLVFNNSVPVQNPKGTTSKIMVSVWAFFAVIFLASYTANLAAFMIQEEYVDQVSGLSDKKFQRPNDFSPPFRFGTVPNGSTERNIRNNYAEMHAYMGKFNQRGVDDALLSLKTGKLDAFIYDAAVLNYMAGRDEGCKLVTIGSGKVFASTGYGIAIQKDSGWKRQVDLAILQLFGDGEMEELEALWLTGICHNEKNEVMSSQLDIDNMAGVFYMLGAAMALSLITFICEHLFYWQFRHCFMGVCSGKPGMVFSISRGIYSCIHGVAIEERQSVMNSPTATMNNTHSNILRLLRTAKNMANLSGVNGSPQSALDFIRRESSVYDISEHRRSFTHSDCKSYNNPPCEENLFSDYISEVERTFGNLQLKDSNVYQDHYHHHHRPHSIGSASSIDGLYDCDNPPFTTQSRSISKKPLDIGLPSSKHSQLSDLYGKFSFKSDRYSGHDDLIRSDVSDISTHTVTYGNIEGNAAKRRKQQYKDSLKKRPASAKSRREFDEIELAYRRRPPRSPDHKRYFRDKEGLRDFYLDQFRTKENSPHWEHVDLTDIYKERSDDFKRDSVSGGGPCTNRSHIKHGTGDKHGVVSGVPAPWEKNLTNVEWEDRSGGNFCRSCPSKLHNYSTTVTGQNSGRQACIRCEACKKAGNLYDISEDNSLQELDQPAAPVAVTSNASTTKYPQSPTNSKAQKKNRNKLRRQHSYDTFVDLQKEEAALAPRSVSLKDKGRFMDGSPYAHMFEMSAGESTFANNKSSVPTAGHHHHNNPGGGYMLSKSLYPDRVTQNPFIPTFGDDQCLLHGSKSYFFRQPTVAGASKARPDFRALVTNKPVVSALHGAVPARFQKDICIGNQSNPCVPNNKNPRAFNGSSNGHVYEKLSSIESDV
Cholinesterase, sequence (P06276 whole entry): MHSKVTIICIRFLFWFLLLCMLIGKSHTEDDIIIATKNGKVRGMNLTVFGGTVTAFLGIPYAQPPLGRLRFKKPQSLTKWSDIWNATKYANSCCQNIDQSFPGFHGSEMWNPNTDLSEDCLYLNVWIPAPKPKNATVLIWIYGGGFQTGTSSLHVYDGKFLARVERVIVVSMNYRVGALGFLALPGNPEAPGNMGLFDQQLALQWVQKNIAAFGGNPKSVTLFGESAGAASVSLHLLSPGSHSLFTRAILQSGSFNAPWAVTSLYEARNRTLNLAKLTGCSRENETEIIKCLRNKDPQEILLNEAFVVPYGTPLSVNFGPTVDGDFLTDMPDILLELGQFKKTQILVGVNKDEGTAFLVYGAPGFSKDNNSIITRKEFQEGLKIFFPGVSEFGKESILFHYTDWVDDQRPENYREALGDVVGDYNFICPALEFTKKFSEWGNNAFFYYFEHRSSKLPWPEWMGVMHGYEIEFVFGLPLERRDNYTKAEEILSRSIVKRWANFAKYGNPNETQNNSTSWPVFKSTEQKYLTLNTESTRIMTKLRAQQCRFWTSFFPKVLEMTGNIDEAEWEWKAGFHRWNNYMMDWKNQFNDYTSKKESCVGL
Sigma non-opioid intracellular receptor 1, sequence (Q60492 whole entry): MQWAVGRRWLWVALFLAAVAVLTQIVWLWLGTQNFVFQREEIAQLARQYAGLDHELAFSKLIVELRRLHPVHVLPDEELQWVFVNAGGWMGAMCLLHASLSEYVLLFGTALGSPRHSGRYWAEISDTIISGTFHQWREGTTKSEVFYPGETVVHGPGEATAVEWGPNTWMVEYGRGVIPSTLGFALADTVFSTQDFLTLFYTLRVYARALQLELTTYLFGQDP
Acetylcholinesterase, sequence (P22303 whole entry): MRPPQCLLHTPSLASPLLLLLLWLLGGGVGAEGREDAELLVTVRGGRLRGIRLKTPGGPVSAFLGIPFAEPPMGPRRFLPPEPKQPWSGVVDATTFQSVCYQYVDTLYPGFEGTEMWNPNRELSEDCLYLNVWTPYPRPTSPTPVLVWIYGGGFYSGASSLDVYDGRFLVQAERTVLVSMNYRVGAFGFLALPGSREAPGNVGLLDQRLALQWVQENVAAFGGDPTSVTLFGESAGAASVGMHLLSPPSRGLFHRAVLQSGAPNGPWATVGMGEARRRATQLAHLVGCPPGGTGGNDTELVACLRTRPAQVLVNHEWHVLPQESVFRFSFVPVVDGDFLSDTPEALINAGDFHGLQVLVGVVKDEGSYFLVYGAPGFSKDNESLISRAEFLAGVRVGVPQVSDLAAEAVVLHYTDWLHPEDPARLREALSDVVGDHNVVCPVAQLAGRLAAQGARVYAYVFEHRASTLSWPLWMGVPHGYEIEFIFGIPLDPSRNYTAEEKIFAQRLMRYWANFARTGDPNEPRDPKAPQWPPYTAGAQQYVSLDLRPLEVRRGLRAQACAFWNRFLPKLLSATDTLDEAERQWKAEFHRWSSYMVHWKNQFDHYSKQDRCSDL
Cytochrome P450 2C9, sequence (P11712 whole entry): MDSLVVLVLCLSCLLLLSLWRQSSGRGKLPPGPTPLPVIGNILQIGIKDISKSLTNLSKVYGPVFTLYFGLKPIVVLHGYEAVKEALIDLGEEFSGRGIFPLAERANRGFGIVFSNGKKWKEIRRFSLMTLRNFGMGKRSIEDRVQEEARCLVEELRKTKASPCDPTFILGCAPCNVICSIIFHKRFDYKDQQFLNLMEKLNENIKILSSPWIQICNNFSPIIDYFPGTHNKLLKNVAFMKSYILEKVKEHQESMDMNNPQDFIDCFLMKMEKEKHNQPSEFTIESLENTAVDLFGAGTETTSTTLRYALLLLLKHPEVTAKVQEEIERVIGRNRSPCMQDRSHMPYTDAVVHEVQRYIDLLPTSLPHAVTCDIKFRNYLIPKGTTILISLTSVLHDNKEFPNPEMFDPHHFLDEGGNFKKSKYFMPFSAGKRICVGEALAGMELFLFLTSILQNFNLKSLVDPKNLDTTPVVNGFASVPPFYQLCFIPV
Cytochrome P450 2D6, sequence (P10635 whole entry): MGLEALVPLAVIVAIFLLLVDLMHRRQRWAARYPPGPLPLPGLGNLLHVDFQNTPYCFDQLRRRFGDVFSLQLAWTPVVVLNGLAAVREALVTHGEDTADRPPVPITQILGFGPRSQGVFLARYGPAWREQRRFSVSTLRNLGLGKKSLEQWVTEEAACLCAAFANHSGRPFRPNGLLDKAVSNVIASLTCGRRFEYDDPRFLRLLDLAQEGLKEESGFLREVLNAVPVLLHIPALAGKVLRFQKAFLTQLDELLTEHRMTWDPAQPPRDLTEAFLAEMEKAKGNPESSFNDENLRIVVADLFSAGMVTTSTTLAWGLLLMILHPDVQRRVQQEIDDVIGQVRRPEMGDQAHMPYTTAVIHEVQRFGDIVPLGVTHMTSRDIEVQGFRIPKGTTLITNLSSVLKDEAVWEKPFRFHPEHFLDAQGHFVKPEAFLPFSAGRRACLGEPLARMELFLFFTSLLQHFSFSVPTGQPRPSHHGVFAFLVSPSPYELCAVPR
Cytochrome P450 3A4, sequence (P08684 whole entry): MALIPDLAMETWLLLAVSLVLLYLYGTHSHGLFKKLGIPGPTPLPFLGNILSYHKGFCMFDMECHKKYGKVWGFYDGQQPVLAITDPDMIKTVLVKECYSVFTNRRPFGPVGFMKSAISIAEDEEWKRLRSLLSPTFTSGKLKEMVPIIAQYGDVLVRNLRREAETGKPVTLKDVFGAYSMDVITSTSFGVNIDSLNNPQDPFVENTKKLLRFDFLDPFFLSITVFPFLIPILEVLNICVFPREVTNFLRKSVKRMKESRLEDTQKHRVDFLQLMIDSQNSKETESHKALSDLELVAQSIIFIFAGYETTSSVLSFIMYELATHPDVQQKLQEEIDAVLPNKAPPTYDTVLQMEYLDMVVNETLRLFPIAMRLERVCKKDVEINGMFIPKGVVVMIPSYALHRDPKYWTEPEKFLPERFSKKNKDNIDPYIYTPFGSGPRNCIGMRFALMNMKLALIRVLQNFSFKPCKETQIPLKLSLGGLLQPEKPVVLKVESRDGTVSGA

Row | SMILES | Ki [1] [nM] | IC50 (Acetylcholinesterase) [nM] | IC50 (Cholinesterase) [nM] | Ki [2] [nM] | Ratio Ki [3] | Ki [4] [nM] | further results
1 | CCN1CCN(CCC(=O)Nc2nc3c(C)cccc3s2)CC1 | 543 | 20600 | > 40000 | > 1000 | 2.21 | 1200 | 
2 | CCOCCN1CCN(CCC(=O)Nc2nc3c(C)cccc3s2)CC1 | 575 | 20100 | 39000 | > 1000 | 2.78 | 1600 | 
3 | Cc1cccc2sc(NC(=O)CCN3CCN(CCN(C(C)C)C(C)C)CC3)nc12 | 809 | 240 | > 40000 | 202 |  | 121 | Activity (Danio rerio [5]): Active; Activity (Danio rerio [6]): 15.1%; Ratio Ki [7]: 6.68; Activity (SH-SY5Y [8]): Active; Activity (Danio rerio [9]): 37.1%; Activity (SH-SY5Y [10]): Active; fold change (FC) (PC-12 [11]): 3.7
4 | CC(=O)c1ccc(N2CCN(CCC(=O)Nc3nc4c(C)cccc4s3)CC2)cc1 | 1000 | 3820 | 3040 | 187 |  | > 1000 | 
5 | Cc1cccc2sc(NC(=O)CCN3CCN(C(C)(C)C)CC3)nc12 | 147 | 810 | > 40000 | 476 | 1.36 | 200 | 
6 | Cc1cccc2sc(NC(=O)CCN3CCN(Cc4cccc5ccccc45)CC3)nc12 | 1000 | 19300 | 32900 | > 1000 |  | > 1000 | 
7 | Cc1cccc2sc(NC(=O)CCN3CCN(c4ccncc4)CC3)nc12 | 9600 | 18200 | > 40000 | 184 |  | 1700 | IC50 (Cytochrome P450 2D6): 13600 nM; Activity (Danio rerio [5]): Active; IC50 (P2X purinoceptor 7): 1130 nM; Ratio Ki [7]: 5.65; Activity (SH-SY5Y [8]): Active; IC50 (Cytochrome P450 2C9): 2460 nM; Activity (Danio rerio [12]): 25.9%; IC50 (Cytochrome P450 3A4): 1140 nM; Activity (SH-SY5Y [10]): Active
8 | Cc1cccc2sc(NC(=O)CCN3CCN(C4CCCCC4)CC3)nc12 | 24 | 10900 | 3190 | 213 | 9.71 | 233 | Activity (Danio rerio [5]): Active; Activity (SH-SY5Y [13]): Active; Activity (SH-SY5Y [14]): Active; IC50 at 24 h [15]: 47100 nM
9 | Cc1cccc2sc(NC(=O)CCN3CCN(Cc4ccccc4F)CC3)nc12 | 1700 | 5220 | 2900 | > 1000 |  | > 1000 | 
10 | Cc1cccc2sc(NC(=O)CCN3CCN(CC4CCCO4)CC3)nc12 (racemic) | 109 | 7910 | 12800 | 457 | 45.9 | 5000 | fold change (FC) (PC-12 [16]): 2.4; Activity (Danio rerio [5]): Active; Activity (SH-SY5Y [8]): Active; IC50 at 24 h [15]: 46300 nM; Activity (SH-SY5Y [10]): Active
11 | COc1cc2c(cc1OC)C(=O)C(CC1CCN(Cc3ccccc3)CC1)C2 (stereo not given) [DONEPEZIL] |  |  |  |  |  |  | Activity (Danio rerio [12]): 4.3%
12 | Cc1cccc2sc(NC(=O)CCN3CCN(C4CCN(C)CC4)CC3)nc12 | 6000 | 10500 | > 40000 | > 1000 |  | 3600 | Ratio Ki [7]: 1.66
13 | CCCCCCN1CCN(CCC(=O)Nc2nc3c(C)cccc3s2)CC1 | 238 | > 40000 | 29300 | 115 |  | 158 | Activity (SH-SY5Y [13]): Active; Activity (SH-SY5Y [14]): Active; Ratio Ki [7]: 1.5
14 | Cc1cccc2sc(NC(=O)CCN3CCN(CCN(C)C)CC3)nc12 | 1000 | 480 | > 40000 | > 1000 |  | > 1000 | IC50 (P2X purinoceptor 7): 2150 nM
15 | Cc1cccc2sc(NC(=O)CCN3CCN(Cc4ccc(C(C)(C)C)cc4)CC3)nc12 | 238 | 40000 | 9320 | > 1000 |  | 238 | 
16 | CCCCN1CCN(CCC(=O)Nc2nc3c(C)cccc3s2)CC1 | 204 | > 40000 | 30100 | 229 | 5.88 | 1200 | 
17 | Cc1cccc2sc(NC(=O)CCN3CCN(c4ncccn4)CC3)nc12 | 505 | 30000 | > 40000 | > 1000 | > 1.98 | > 1000 | IC50 (P2X purinoceptor 7): 1330 nM
18 | Cc1ccccc1N1CCN(CCC(=O)Nc2nc3c(C)cccc3s2)CC1 | 1000 | > 40000 | 8630 | > 1000 |  | > 1000 | 
19 | Cc1cccc2sc(NC(=O)CCN3CCN(c4ccccn4)CC3)nc12 | 1000 | 17200 | > 40000 | > 1000 |  | > 1000 | IC50 (P2X purinoceptor 7): 1400 nM
20 | Cc1cccc2sc(NC(=O)CCN3CCN(CC4CCCCC4)CC3)nc12 | 35 | 340 | 7650 | 60 | 14.8 | 519 | Activity (Danio rerio [5]): Active; Activity (SH-SY5Y [8]): Active; IC50 at 24 h [15]: 30700 nM; Activity (SH-SY5Y [10]): Active
21 | Cc1cccc2sc(NC(=O)CCN3CCN(CCCN(C)C)CC3)nc12 | 570 | 410 | > 40000 | 1800 | > 1.75 | > 1000 | Papp [17]: 4.5 ×10⁻⁶ cm/s; Activity (Danio rerio [5]): Active; IC50 at 24 h [18]: 20500 nM; IC50 (P2X purinoceptor 7): 18100 nM; Papp at 16 h [19]: 4 ×10⁻⁶ cm/s; Activity (SH-SY5Y [8]): Active; Activity (Danio rerio [12]): 33.1%; Activity (SH-SY5Y [10]): Active
22 | Cc1cccc2sc(NC(=O)CCN3CCN(Cc4cc(F)ccc4F)CC3)nc12 | 1000 | 12600 | 7660 | > 1000 |  | > 1000 | 
23 | Cc1cccc2sc(NC(=O)CCN3CCN(C(C)C)CC3)nc12 | 1300 | 2750 | 14400 | > 1000 | 1.38 | 1800 | 
